Reference: ChEMBL document CHEMBL5325394, “What We Have Gained from Ibogaine: α3β4 Nicotinic Acetylcholine Receptor Inhibitors as Treatments for Substance Use Disorders” (J Med Chem, 2023)
Where a SMILES comes first, the peptide text is derived from it. Bridges are numbered along the chain shown (N, C = ends).

Key:
[1] = target: T1, Neuronal acetylcholine receptor subunit alpha-7 (Homo sapiens, UniProt P36544); experiment: Antagonist activity at alpha7 nAChRs in human SH-SY5Y cells assessed as increase in intracellular calcium level by FLIPR assay; type: cell-based
[2] = target: Mu-type opioid receptor (Bos taurus, UniProt P79350); experiment: Displacement of [3H]-DAGO from calf cortex MOR receptor assessed as inhibition constant; type: tissue-based
[3] = Displacement of [3H]-DPDPE from calf caudate nucleus DOR receptor assessed as inhibition constant; type: tissue-based, Bos taurus
[4] = Displacement of [3H]-GR-65,630 from 5-HT3 receptor in mouse NG-108 cells assessed as inhibition constant; type: cell-based; details: ng-108 cell
[5] = target: T2, Muscarinic acetylcholine receptor M1 (Bos taurus, UniProt Q8WMX0); experiment: Displacement of [3H]-pirenzepine from calf cortex Muscarinic M1 receptor assessed as inhibition constant; type: tissue-based
T2 sequence (Q8WMX0 whole entry): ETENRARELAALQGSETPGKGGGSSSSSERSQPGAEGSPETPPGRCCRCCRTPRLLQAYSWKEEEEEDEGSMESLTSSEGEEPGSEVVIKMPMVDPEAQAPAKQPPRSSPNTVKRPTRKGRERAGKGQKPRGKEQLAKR

[6] = target: Sigma intracellular receptor 2 (Bos taurus, UniProt Q3MHW7); experiment: Displacement of [3H]-DTG from calf hippocampus sigma 2 receptor assessed as inhibition constant; type: tissue-based
[7] = Displacement of [3H]-BTX-B from bovine cortex sodium channel assessed as inhibition constant; type: tissue-based, Bos taurus
[8] = Displacement of [3H]-MK801 from bovine cortex NMDA receptor assessed as inhibition constant; type: tissue-based, Bos taurus
[9] = Displacement of [3H]-paroxetine from bovine brain stem 5-HT receptor assessed as inhibition constant; type: tissue-based, Bos taurus, Brainstem
[10] = target: T3, Neuronal acetylcholine receptor; alpha3/beta4 (Homo sapiens, UniProt P30926+P32297); experiment: Antagonist activity at recombinant alpha3beta4 nAChR in HEK293 cells by voltage-clamp based electrophysiological method; type: cell-based
[11] = target: T4, Neuronal acetylcholine receptor; alpha4/beta2 (Homo sapiens, UniProt P17787+P43681); experiment: Antagonist activity at alpha4beta2 nAChR in HEK293 cells by voltage-clamp based electrophysiological method; type: cell-based
[12] = target: T3, Neuronal acetylcholine receptor; alpha3/beta4; experiment: Displacement of [3H]Ibogaine from human alpha3beta4 nAChRs expressed in HEK293 cells assessed as inhibition constant incubated for 2 hrs by scintillation counter analysis; type: cell-based
[13] = target: Neuronal acetylcholine receptor; alpha3/beta4 (Rattus norvegicus, UniProt P04757+P12392); experiment: Antagonist activity at rat alpha3beta4 nACh receptor expressed in Xenopus oocyte by voltage-clamp based electrophysiological assay; type: cell-based
[14] = target: Neuronal acetylcholine receptor; alpha3/beta2 (Rattus norvegicus, UniProt P04757+P12390); experiment: Antagonist activity at rat alpha3beta2 nACh receptor expressed in Xenopus oocyte by voltage-clamp based electrophysiological assay; type: cell-based
[15] = target: T5, Neuronal acetylcholine receptor; alpha4/beta2 (Rattus norvegicus, UniProt P09483+P12390); experiment: Antagonist activity at rat alpha4beta2 nACh receptor expressed in Xenopus oocyte by voltage-clamp based electrophysiological assay; type: cell-based
[16] = target: T1, Neuronal acetylcholine receptor subunit alpha-7; experiment: Antagonist activity at human alpha7 nACh receptor expressed in Xenopus oocyte by voltage-clamp based electrophysiological assay; type: cell-based
[17] = target: T4, Neuronal acetylcholine receptor; alpha4/beta2; experiment: Antagonist activity at alpha4beta2 nAChRs (unknown origin) assessed as inhibition constant; type: protein-complex assay
[18] = target: T1, Neuronal acetylcholine receptor subunit alpha-7; experiment: Antagonist activity at alpha7 nAChRs (unknown origin) assessed as inhibition constant
[19] = target: T3, Neuronal acetylcholine receptor; alpha3/beta4; experiment: Inhibition of alpha3beta4 (unknown origin) by electrophysiology assay; type: protein-complex assay
[20] = target: Neuronal acetylcholine receptor; alpha3/beta2 (Homo sapiens, UniProt P17787+P32297); experiment: Inhibition of nAChR alpha3beta2 (unknown origin) by electrophysiology assay; type: protein-complex assay
[21] = target: T1, Neuronal acetylcholine receptor subunit alpha-7; experiment: Inhibition of nAChR alpha7 (unknown origin) by electrophysiology assay
[22] = target: T4, Neuronal acetylcholine receptor; alpha4/beta2; experiment: Inhibition of nAChR alpha4beta2 (unknown origin) by electrophysiology assay; type: protein-complex assay
[23] = target: T5, Neuronal acetylcholine receptor; alpha4/beta2; experiment: Binding affinity to rat alpha4beta2 nAChR expressed in HEK cells assessed as inhibition constant measured after 2 hrs in the presence of [3H]epibatidine; type: cell-based
[24] = target: Neuronal acetylcholine receptor subunit alpha-7 (Rattus norvegicus, UniProt Q05941); experiment: Binding affinity to rat alpha7 nAChR expressed in HEK cells assessed as inhibition constant measured after 2 hrs in the presence of [3H]epibatidine; type: cell-based
[25] = target: T4, Neuronal acetylcholine receptor; alpha4/beta2; experiment: Antagonist activity at alpha4beta2 nAChR (unknown origin); type: protein-complex assay
[26] = target: Serotonin 3 (5-HT3) receptor; experiment: Antagonist activity at 5-HT3 receptor (unknown origin); type: protein-complex assay, Homo sapiens
[27] = target: Histamine H1 receptor (Homo sapiens, UniProt P35367); experiment: Antagonist activity at H1 receptor (unknown origin)
[28] = target: T6, Muscarinic acetylcholine receptor M5 (Homo sapiens, UniProt P08912); experiment: Antagonist activity at muscarinic M5 receptor (unknown origin); type: functional
T6 sequence (P08912 whole entry): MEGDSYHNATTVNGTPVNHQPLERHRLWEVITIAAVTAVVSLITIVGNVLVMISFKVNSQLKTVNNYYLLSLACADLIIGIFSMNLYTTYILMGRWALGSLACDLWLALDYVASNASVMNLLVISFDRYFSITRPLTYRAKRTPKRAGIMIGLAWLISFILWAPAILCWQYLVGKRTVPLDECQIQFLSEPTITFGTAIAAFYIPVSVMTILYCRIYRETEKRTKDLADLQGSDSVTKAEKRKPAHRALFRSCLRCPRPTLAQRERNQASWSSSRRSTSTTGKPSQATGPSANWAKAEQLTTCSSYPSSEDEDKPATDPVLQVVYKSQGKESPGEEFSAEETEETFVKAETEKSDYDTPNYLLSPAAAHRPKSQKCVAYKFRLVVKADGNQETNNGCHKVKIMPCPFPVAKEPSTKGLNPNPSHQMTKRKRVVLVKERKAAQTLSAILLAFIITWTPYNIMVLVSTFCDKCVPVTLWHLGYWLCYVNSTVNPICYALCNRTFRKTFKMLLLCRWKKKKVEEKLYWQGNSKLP

[29] = target: Sigma intracellular receptor 2 (Homo sapiens, UniProt Q5BJF2); experiment: Antagonist activity at sigma 2 receptor (unknown origin)
Chain of Sigma intracellular receptor 2 (Homo sapiens, UniProt Q5BJF2) (Q5BJF2 whole entry): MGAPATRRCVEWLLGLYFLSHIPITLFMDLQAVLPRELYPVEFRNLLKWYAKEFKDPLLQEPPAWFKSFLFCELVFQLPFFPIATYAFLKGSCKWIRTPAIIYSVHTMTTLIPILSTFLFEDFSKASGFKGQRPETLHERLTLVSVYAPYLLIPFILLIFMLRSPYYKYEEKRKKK

T1 sequence (P36544 whole entry): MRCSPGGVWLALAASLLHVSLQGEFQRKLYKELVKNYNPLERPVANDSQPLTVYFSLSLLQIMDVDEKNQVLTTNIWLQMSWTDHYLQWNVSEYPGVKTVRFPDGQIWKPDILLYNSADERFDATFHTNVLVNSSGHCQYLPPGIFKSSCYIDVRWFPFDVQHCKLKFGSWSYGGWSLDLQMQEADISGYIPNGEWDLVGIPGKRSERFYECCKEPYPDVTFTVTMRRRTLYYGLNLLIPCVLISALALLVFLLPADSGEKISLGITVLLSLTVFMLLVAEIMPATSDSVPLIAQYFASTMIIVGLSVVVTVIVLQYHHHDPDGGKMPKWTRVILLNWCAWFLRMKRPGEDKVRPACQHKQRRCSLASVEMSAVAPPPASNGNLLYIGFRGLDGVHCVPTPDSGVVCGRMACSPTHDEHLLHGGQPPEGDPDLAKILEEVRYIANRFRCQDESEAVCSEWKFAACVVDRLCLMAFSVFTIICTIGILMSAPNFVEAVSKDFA
T4 sequence (P17787 whole entry): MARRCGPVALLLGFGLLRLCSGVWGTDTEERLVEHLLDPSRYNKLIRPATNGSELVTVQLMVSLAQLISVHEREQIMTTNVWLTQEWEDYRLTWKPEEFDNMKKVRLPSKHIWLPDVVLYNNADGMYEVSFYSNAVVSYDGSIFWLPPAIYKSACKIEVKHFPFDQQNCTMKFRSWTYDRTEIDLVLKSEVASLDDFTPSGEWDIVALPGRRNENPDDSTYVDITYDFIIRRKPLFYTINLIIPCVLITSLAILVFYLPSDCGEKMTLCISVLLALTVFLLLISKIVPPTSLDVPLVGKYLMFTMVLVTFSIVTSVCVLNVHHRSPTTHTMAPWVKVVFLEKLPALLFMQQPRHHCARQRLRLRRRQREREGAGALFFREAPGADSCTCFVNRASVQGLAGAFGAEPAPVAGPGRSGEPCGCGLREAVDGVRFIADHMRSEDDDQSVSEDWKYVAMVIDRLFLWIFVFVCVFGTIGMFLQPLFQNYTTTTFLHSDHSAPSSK
T4 sequence (P43681 whole entry): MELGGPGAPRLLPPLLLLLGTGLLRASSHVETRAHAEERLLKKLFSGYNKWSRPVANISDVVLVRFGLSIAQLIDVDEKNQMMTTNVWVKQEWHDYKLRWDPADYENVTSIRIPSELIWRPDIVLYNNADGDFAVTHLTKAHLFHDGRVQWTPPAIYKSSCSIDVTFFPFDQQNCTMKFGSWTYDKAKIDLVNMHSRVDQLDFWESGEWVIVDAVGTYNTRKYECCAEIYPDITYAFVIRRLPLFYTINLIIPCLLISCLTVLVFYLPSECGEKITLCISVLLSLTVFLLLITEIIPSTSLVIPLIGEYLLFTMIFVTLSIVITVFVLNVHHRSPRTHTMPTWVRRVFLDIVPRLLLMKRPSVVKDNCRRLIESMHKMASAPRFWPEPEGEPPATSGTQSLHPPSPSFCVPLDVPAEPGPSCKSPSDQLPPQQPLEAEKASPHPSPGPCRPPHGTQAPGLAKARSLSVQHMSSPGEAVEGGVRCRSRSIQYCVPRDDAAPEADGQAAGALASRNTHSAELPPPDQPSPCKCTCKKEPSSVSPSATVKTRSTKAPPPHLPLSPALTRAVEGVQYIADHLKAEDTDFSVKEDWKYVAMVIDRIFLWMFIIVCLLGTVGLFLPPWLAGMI
T3 sequence (P30926 whole entry): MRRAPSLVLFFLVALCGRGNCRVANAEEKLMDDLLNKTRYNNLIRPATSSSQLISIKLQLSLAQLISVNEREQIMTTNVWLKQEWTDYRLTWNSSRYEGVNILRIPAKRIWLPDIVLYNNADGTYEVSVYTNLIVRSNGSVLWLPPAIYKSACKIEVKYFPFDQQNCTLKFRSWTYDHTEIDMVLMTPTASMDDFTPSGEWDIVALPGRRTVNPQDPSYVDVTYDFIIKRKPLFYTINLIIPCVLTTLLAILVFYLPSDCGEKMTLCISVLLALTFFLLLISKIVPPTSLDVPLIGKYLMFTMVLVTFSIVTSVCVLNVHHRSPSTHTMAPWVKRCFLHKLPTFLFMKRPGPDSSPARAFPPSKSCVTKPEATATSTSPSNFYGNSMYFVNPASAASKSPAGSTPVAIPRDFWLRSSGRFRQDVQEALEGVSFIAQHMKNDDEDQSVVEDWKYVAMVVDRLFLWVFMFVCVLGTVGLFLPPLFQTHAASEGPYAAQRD
T3 sequence (P32297 whole entry): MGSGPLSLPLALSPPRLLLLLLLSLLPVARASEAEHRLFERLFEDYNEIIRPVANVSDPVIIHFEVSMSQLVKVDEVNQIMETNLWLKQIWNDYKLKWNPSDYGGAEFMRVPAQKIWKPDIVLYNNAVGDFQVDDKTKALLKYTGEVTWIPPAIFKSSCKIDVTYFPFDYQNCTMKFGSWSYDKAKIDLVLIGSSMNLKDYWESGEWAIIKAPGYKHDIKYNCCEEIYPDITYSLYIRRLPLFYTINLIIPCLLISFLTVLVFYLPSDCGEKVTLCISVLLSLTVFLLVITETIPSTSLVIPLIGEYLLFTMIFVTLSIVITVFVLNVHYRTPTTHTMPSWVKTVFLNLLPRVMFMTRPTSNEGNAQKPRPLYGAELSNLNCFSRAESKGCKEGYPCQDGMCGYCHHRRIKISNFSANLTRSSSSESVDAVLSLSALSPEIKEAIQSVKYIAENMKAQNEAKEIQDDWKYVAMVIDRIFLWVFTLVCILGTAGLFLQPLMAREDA
T5 sequence (P09483 whole entry): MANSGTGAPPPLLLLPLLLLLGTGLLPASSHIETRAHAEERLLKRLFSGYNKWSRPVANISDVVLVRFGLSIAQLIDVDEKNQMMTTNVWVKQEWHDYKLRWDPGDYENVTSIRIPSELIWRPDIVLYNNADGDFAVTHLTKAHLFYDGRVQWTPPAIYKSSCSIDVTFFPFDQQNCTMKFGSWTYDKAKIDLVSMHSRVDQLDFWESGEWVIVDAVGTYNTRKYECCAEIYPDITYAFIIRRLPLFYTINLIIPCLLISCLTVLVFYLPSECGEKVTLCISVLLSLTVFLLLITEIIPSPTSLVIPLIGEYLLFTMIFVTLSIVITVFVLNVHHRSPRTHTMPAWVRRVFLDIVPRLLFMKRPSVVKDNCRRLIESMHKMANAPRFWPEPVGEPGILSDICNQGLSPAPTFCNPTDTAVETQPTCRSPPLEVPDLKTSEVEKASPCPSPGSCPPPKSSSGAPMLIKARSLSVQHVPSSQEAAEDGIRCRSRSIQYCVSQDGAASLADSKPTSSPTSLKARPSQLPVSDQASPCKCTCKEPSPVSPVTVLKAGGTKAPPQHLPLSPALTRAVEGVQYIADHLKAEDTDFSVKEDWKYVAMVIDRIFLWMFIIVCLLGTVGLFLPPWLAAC
T5 sequence (P12390 whole entry): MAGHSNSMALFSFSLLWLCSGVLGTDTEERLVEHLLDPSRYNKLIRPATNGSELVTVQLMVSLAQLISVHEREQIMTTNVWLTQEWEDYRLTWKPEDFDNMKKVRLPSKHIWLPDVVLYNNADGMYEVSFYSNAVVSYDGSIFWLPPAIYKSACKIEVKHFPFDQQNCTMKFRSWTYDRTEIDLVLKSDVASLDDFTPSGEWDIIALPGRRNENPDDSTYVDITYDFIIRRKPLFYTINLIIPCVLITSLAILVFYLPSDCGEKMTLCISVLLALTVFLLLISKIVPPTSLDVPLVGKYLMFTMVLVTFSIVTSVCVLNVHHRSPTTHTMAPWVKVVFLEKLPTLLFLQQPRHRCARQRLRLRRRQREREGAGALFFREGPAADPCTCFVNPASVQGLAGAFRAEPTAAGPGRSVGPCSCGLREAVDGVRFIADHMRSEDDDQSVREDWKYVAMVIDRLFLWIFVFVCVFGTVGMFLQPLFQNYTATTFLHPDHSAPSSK
Chain of Neuronal acetylcholine receptor subunit alpha-7 (Rattus norvegicus, UniProt Q05941) (Q05941 whole entry): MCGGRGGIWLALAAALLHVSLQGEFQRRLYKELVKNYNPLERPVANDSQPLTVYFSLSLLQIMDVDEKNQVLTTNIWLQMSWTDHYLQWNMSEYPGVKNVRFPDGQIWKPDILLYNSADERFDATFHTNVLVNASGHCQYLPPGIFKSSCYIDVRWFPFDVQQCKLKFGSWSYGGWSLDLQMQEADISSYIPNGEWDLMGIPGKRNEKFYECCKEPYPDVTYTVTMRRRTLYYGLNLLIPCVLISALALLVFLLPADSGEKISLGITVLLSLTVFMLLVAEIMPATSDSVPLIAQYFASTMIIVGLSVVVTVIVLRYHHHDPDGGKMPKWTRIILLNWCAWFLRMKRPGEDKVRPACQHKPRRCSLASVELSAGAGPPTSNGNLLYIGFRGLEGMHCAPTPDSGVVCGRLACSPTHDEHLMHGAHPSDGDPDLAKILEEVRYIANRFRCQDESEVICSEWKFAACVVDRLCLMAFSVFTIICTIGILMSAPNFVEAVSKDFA
Chain of Sigma intracellular receptor 2 (Bos taurus, UniProt Q3MHW7) (Q3MHW7 whole entry): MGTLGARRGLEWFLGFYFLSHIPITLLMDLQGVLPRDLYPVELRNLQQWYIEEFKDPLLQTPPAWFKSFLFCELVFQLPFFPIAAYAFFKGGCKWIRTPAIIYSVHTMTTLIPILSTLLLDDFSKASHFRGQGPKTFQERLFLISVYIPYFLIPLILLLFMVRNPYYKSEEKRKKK
Chain of Neuronal acetylcholine receptor; alpha3/beta2 (Homo sapiens, UniProt P17787+P32297) (P17787 whole entry): as the sequence (P17787 whole entry) above
Chain of Neuronal acetylcholine receptor; alpha3/beta2 (Homo sapiens, UniProt P17787+P32297) (P32297 whole entry): as the sequence (P32297 whole entry) above

Work on `CC[C@H](C)[C@@H]1NC(=O)[C@H](CC(N)=O)NC(=O)[C@@H]2CCCN2C(=O)[C@H](CC(N)=O)NC(=O)[C@H](CC(N)=O)NC(=O)[C@H](C(C)C)NC(=O)[C@H](CCCNC(=N)N)NC(=O)[C@@H]2CSSC[C@H](NC(=O)CNC(=O)[C@@H](N)CO)C(=O)N[C@@H](CSSC[C@@H](C(=O)O)NC1=O)C(=O)N[C@@H](CO)C(=O)N[C@@H](CC(N)=O)C(=O)N1CCC[C@H]1C(=O)N[C@@H](C)C(=O)N2` (H-SGCCSNPACRVNNPNIC-OH; disulfide 3-9, 4-17) yielded an IC50 [1] of over 10 nM.

Molecule `CC[C@H]1C[C@@H]2C[C@H]3c4[nH]c5ccc(OC)cc5c4CC[N@@](C2)[C@@H]13` has a Ki [2] of 2 nM, a Ki [3] of over 10 nM and a Ki [4] of 2.6 nM. It also gave a Ki [5] of 16 nM, a Ki [6] of 0.4 nM and a Ki [7] of 3.6 nM. The Ki [8] was 3.1 nM, the Ki [9] was 4.1 nM and the IC50 [10] was 220 nM. The IC50 [11] was 1000 nM and the Ki [12] was 1.05 nM.

Work on `CC[C@H](C)[C@H](NC(=O)[C@H](Cc1cnc[nH]1)NC(=O)[C@@H]1CCCN1C(=O)[C@H](CC(N)=O)NC(=O)[C@H](CC(N)=O)NC(=O)[C@@H](NC(=O)[C@H](CC(N)=O)NC(=O)[C@H](CS)NC(=O)[C@H](C)NC(=O)[C@@H]1CCCN1C(=O)[C@H](Cc1cnc[nH]1)NC(=O)[C@H](CO)NC(=O)[C@H](CS)NC(=O)[C@H](CS)NC(=O)CN)C(C)C)C(=O)N[C@@H](CS)C(=O)O` (H-GCCSHPACNVNNPHIC-OH) yielded an IC50 [13] of 97 nM, an IC50 [14] of 33 nM and an IC50 [15] of over 100000 nM. The IC50 [16] was 103 nM.

Work on `CNC1(C)[C@H]2CC[C@H](C2)C1(C)C` (mixture of isomers) yielded a Ki [17] of 2500 nM and a Ki [18] of 6900 nM.

In the case of `C[C@@H]1NC(=O)[C@H](Cc2ccccc2)NC(=O)[C@@H]2CSSC[C@H](NC(=O)CN)C(=O)N[C@@H](CSSC[C@@H](C(N)=O)NC(=O)[C@H](CC(=O)O)NC(=O)[C@@H]3CCCN3C(=O)[C@H](CC(N)=O)NC(=O)[C@H]([C@@H](C)O)NC1=O)C(=O)N[C@@H](CO)C(=O)N[C@@H](Cc1ccc(O)cc1)C(=O)N1CCC[C@H]1C(=O)N1CCC[C@H]1C(=O)N2`, the IC50 [19] is reported as 770 nM, the IC50 [20] is reported as over 100000 nM and the IC50 [21] is reported as over 100000 nM. The IC50 [22] was over 100000 nM.

`CN1C2CCCC1CC(Nc1ccccc1Br)C2` (centres undefined) gave a Ki [23] of 477 nM, a Ki [24] of 222 nM and an IC50 [25] of 300 nM. For the same molecule, the IC50 [26] was 600 nM, the IC50 [27] was 201 nM and the IC50 [28] was 325 nM. It also gave an IC50 [29] of 418 nM.
